Experimental findings from ChEMBL document CHEMBL1125858, “Synthesis and biological activity of MK 287 (L-680,573): a potent, specific and orally active paf receptor antagonist” (Bioorg Med Chem Lett, 1991) are described below.

The source made the active and inactive calls. No cut-off for these calls is given here.

The species entered for data set [1] is Homo sapiens. Nature of the data set: Compound was tested for human platelet aggregation induced by thromboxane A2 agonist U-44,069 at concentrations from 1 to 10 uM; NE means no effect. The class given is functional, organism-based.
In data set [2] the test system is Cavia porcellus. The experiment in a line: Compound was tested for it's ability to inhibit PAF-induced bronchoconstriction in male guinea pigs after intravenous dosing. The class given is functional.
The species named for data set [3] is Homo sapiens. The experiment in a line: Compound was tested for PAF-induced human platelet aggregation in washed platelets. The class given is functional, organism-based.
Data set [4] has as its target T1, Alpha-2A adrenergic receptor (Bos taurus) (UniProt Q28838).
T1 sequence (whole entry): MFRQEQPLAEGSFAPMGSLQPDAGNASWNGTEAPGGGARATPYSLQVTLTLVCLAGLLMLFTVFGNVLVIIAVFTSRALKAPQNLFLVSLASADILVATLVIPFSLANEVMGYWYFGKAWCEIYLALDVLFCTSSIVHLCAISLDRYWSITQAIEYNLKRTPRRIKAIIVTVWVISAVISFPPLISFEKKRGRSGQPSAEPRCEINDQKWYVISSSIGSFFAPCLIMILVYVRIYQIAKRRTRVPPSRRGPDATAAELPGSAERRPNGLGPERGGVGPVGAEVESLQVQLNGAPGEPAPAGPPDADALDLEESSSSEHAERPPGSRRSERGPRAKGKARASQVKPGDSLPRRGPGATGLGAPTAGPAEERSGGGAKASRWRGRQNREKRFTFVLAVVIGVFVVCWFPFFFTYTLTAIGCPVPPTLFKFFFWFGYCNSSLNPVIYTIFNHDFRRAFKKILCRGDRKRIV
Nature of the data set: Compound was tested for it's binding affinity towards calf brain alpha 2 receptor at a concentration of 10 uM; NA means no affinity.

The species entered for data set [5] is Homo sapiens. Nature of the data set: Compound was tested for human platelet aggregation induced by ADP at concentrations from 1 to 10 uM; NE means no effect. The class given is functional, organism-based.
Data set [6] concerns Cavia porcellus. The experiment in a line: Compound was tested for it's ability to inhibit PAF-induced bronchoconstriction in female guinea pigs after intravenous dosing. The class given is functional.
Data set [7] is filed under the species Homo sapiens. The experiment in a line: The compound was tested for PAF-induced degranulation in preincubated isolated human neutrophils. The class given is functional.
Data set [8] deals with C5a anaphylatoxin chemotactic receptor 1 (Homo sapiens) (UniProt P21730). The note with it: 1 to 10 uM.
Description: Compound was tested for it''s ability to inhibit binding of [125I]C5a radioligand to its receptor at a concentration of 1 to 10 uM; NS means no significant inhibition
The target in data set [9] is Leukotriene B4 receptor 1 (Homo sapiens) (UniProt Q15722). The conditions noted are these: 1 to 10 uM.
The species entered for data set [10] is Homo sapiens. Nature of the data set: Compound was tested for PAF-induced human platelet aggregation in plasma-rich platelets. The class given is functional, organism-based.
The species named for data set [11] is Homo sapiens. Nature of the data set: Compound was tested for human platelet aggregation induced by vasopressin at concentrations from 1 to 10 uM; NE means no effect. The class given is functional, organism-based.
The subject of data set [12] is Rattus norvegicus. Nature of the data set: In vivo efficacy for increased plasma N-acetyl-beta-D-glucosaminidase (NAGA) activity in male and female rats in a dose-dependent manner. The class given is functional.
For data set [13], the target named is T2, Alpha-1A adrenergic receptor (Bos taurus) (UniProt P18130).
T2 sequence (whole entry): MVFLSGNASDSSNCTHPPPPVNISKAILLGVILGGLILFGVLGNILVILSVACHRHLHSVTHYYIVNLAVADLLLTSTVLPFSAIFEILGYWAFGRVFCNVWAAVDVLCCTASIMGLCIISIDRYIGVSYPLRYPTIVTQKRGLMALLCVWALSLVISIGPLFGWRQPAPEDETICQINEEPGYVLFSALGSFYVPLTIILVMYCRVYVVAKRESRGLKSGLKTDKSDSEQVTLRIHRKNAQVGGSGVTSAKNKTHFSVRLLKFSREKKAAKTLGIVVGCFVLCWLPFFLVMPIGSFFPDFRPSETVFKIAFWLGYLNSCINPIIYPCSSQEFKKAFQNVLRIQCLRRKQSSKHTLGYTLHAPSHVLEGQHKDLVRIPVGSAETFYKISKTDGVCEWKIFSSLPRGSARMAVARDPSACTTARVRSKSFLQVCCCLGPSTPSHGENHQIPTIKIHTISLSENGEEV
Nature of the data set: Compound was tested for it's binding affinity towards calf brain alpha 1 receptor at a concentration of 10 uM; NA means no affinity.

For data set [14], the target named is Beta-1 adrenergic receptor (Cavia porcellus) (UniProt B0FL73). The experiment in a line: Compound was tested for it's binding affinity towards guinea pig heart Beta-1 adrenergic receptor at a concentration of 10 uM; NA means no affinity.
The target of data set [15] is Beta-2 adrenergic receptor (Cavia porcellus) (UniProt Q8K4Z4). Nature of the data set: Compound was tested for it's binding affinity towards guinea pig lung Beta-2 adrenergic receptor at a concentration of 10 uM; NA means no affinity.
The subject of data set [16] is Rattus norvegicus. Nature of the data set: In vivo efficacy for inhibition of PAF-induced (10 nM/kg) extravasation in male and female rats in a dose-dependent manner. The class given is functional.
The nature of data set [17]: Half-life in rhesus monkeys by intravenous administration of dose. The class given is ADME, organism-based. The conditions noted are these: cercopithecidae, in vivo.

Beta-1 adrenergic receptor (Cavia porcellus), sequence (B0FL73 1-467): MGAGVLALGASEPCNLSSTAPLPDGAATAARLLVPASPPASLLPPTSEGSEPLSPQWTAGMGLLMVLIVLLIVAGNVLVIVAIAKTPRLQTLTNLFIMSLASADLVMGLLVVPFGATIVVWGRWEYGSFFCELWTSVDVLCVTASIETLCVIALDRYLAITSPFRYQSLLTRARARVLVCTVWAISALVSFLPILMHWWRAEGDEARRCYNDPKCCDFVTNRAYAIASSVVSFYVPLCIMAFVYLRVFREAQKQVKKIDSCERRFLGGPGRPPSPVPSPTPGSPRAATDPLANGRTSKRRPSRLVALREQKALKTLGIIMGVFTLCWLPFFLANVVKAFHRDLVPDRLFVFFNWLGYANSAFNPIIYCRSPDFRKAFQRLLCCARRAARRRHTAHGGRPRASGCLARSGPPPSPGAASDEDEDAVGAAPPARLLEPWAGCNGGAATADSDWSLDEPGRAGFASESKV
Beta-2 adrenergic receptor (Cavia porcellus), sequence (Q8K4Z4 whole entry, looked up): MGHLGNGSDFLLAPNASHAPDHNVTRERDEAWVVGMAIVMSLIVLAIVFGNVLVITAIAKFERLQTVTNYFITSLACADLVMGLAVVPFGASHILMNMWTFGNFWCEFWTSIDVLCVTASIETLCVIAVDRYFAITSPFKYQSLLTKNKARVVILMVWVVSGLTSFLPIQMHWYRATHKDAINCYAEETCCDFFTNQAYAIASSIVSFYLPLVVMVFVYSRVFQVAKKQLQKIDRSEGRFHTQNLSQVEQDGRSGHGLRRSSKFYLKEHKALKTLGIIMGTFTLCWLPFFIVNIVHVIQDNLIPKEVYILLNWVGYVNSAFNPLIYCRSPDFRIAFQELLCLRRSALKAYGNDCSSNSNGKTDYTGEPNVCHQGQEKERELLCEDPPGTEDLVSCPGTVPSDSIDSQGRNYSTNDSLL
Leukotriene B4 receptor 1 (Homo sapiens), sequence (Q15722 whole entry, looked up): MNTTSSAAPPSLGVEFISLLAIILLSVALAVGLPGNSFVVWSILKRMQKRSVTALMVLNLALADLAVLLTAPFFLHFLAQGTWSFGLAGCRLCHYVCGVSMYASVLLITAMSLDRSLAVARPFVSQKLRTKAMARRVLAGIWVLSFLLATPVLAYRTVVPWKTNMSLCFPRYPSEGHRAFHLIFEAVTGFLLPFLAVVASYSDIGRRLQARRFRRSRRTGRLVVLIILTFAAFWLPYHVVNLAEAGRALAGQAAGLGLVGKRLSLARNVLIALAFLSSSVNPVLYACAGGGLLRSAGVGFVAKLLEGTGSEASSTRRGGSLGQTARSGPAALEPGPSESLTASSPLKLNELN
C5a anaphylatoxin chemotactic receptor 1 (Homo sapiens), sequence (P21730 whole entry, looked up): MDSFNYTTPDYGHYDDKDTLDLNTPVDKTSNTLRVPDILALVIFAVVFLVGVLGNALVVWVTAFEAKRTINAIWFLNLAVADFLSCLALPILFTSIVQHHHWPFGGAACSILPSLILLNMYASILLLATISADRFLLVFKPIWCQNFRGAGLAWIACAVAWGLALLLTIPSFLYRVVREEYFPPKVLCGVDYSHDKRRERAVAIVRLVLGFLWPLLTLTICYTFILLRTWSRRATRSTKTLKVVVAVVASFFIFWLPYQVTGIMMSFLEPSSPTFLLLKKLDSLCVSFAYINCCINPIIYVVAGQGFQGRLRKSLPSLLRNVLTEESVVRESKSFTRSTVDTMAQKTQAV

In the case of `CCCOc1c(OC)cc([C@@H]2CC[C@@H](c3cc(OC)c(OC)c(OC)c3)O2)cc1S(=O)(=O)CCO`, the result in data set [1], in [5] and in data set [11] was inactive. Also, the ED50 in [2] came to 0.19 mg/kg; in data set [6] it was 0.1 mg/kg; in [12], 0.1 mg/kg; in data set [16], 2.3 mg/kg. Besides, the IC50 turned out to be 1.5 nM in data set [3], 4 nM in data set [7] and 56 nM in data set [10]. In addition, the Affinity entry in data set [4], in data set [13], in [14] and in data set [15] was “inactive” each time. For the same compound, the inhibition entry in [8] and in data set [9] was “inactive” throughout.
In turn, `COc1cc([C@H]2CC[C@H](c3cc(OC)c(OC)c(OC)c3)O2)cc(OC)c1OC` registered a half-life in data set [17] of 14 min.
